Results as given in US8933195B2, “Histone deacetylase inhibitors and synthetic method thereof and use thereof in manufacture of medicaments” (Nanjing Yoko Biomedical R & D Ltd., priority 2011, dated 2015).

Legend:
HDAC1 = HDAC1 (Homo sapiens, UniProt Q13547); test: Measurement of biochemical activities of HDAC (fluorescently-labeled acetylated lysine substrate); settings: read-out: IC50 HDAC1
In short: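 For both HDAC isoforms, fluorescent acetyl-lysine substrate ([…] in reaction) incubated with enzyme and compounds for 30 min at 37; developer then added for 15 min at room temperature. Fluorescence read at excitation 360 nm, emission 460 nm.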

[1] = system: BGC-823 (human gastric cancer cells); test: MTT cancer cell growth inhibition; assay type: cell-based; settings: 72 h, read-out: GI50 BGC823
In short: (§1)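 1500 cells/well, DMEM or 1640 + 10% FBS, overnight 37 °C/5% CO2; cpd 10^−5–10^−10 M final, triplicate, 72 h; 0.1% DMSO vehicle; MTT 4 h; DMSO solubilisation; A570; % survival.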

[2] = system: DU145 (human prostate cancer cells); test: MTT cancer cell growth inhibition; assay type: cell-based; settings: DU-145, 72 h
In short: as §1

[3] = system: Hela (human cervical cancer cells); test: MTT cancer cell growth inhibition; assay type: cell-based; settings: 72 h
In short: as §1

[4] = system: MCF-7 (human breast cancer cells); test: MTT cancer cell growth inhibition; assay type: cell-based; settings: MCF7, 72 h
In short: as §1

[5] = system: U937 (human leukemia cells); test: MTT cancer cell growth inhibition; assay type: cell-based; settings: U-937, 72 h
In short: as §1

[6] = system: A549 (human lung cancer cells); test: MTT cancer cell growth inhibition; assay type: cell-based; settings: 72 h
In short: as §1

[7] = system: MOLT-4 (human acute lymphoblastic leukemia cells); test: MTT cancer cell growth inhibition; assay type: cell-based; settings: 72 h
In short: as §1

PANC-1 = test: MTT cancer cell growth inhibition; assay type: cell-based; settings: Homo sapiens, 72 h
In short: as §1

[8] = system: HT1080 (human fibrosarcoma cells); test: MTT cancer cell growth inhibition; assay type: cell-based; settings: HT-1080, 72 h
In short: as §1

[9] = system: Human Gastric Adenocarcinoma Cell BGC-823; test: Subcutaneously transplanted tumors in nude mice; assay type: in vivo; settings: 20 mg/kg
Experimental: (§2) Tumor tissues in the vigorous growth period are cut into about 1.5 mm^3, and inoculated to the right axilla subcutaneous layer of the nude mice under aseptic conditions. For the subcutaneously transplanted tumors of the nude mice, the diameter of the transplanted tumors is measured by a vernier caliper. The mice are randomly grouped after the tumors grow to 100-200 mm^3. […] The diameter of the transplanted tumors is measured twice per week in the whole experimental process, and meanwhile the weight of the mice is weighed. The calculation formula of tumor volume (TV) is TV=½×a×b^2, where a and b represent length and width, respectively.
(§3) The relative tumor volume (RTV) is calculated according to the measured results, with the following calculation formula: RTV=Vt/V0, where V0 is the tumor volume obtained by measurement during administration in different cages (i.e., d0), Vt is the tumor volume obtained by measurement at each time. […] (Wc−WT)Wc×100%, where Wc is the tumor weight of the control group, and WT is the tumor weight of the treatment group.

[10] = system: Human Lung Caner Cell NCI-H1975; test: Subcutaneously transplanted tumors in nude mice; assay type: in vivo; settings: 20 mg/kg
Experimental: as §2, §3

[11] = system: Human Blood Acute Monocytic Leukemia U937; test: Subcutaneously transplanted tumors in nude mice; assay type: in vivo; settings: 20 mg/kg
Experimental: as §2, §3

[12] = system: Human Lymphoma Cell Ramos; test: Subcutaneously transplanted tumors in nude mice; assay type: in vivo; settings: 20 mg/kg
Experimental: as §2, §3

Human Melanoma Cell A875 = test: Subcutaneously transplanted tumors in nude mice; assay type: in vivo; settings: 20 mg/kg
Experimental: as §2, §3

Chain of HDAC1 (Q13547 whole entry, species assumed, canonical isoform): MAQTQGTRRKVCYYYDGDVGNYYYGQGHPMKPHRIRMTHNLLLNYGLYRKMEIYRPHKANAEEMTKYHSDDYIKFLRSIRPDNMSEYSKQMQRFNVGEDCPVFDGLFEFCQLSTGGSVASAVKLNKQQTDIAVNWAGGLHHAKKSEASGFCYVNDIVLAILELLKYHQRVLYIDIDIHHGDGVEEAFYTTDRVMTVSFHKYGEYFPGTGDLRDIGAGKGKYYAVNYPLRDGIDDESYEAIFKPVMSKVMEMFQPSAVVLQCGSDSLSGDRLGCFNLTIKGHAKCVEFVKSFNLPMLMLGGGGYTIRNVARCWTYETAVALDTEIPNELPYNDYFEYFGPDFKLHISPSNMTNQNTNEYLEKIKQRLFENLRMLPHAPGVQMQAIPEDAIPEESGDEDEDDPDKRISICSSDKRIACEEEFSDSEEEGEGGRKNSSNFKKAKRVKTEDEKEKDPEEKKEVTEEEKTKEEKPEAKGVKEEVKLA

| IC50 (HDAC1) [µM] | GI50 [1] [µM] | GI50 [2] [µM] | GI50 [3] [µM] | GI50 [4] [µM] | GI50 [5] [µM] | GI50 [6] [µM] | GI50 [7] [µM] | GI50 (PANC-1) [µM] | GI50 [8] [µM] | Compound | Tumor Inhibition Rate (1 − T/C) × 100% [9] [%] | Tumor Inhibition Rate (1 − T/C) × 100% [10] [%] | Tumor Inhibition Rate (1 − T/C) × 100% [11] [%] | Tumor Inhibition Rate (1 − T/C) × 100% [12] [%] | Tumor Inhibition Rate (1 − T/C) × 100% (Human Melanoma Cell A875) [%] |
| --- | --- | --- | --- | --- | --- | --- | --- | --- | --- | --- | --- | --- | --- | --- | --- |
| < 1 | 2.5 | 0.36 | 1.3 | 0.2 | 0.03 | 2.9 | 0.1 | 1.6 | 0.8 | C/C=C1\NC(=O)c2csc(n2)CNC(=O)C[C@@H](/C=C/CCSC(=O)CCCCCCC)OC(=O)[C@H](C)NC1=O [Compound 1-4] | – | – | – | – | – |
| < 10 | 0.3 | 0.02 | 5 | 0.7 | 0.02 | 0.4 | 0.1 | 1.5 | 0.3 | C/C=C1\NC(=O)c2csc(n2)CNC(=O)C[C@@H](/C=C/CCSC(=O)CCCCCCC)OC(=O)[C@H](Cc2ccccc2)NC1=O [Compound 1-7] | – | – | – | – | – |
| < 0.102 | 0.3 | 0.03 | 0.1 | 0.1 | 0.02 | 0.1 | 0.02 | 0.1 | 0.07 | C/C=C1\NC(=O)c2csc(n2)CNC(=O)C[C@@H](/C=C/CCSC(=O)CCCCCCC)OC(=O)[C@H](Cc2ccc(O)cc2)NC1=O [Compound 1-8] | 56.83 | 53.23 | 68.32 | 58.33 | 68.07 |
| < 10 | 0.4 | 0.05 | 1 | 0.6 | 0.2 | 0.5 | 1 | 3 | 1.3 | C/C=C1\NC(=O)c2csc(n2)CNC(=O)C[C@@H](/C=C/CCSC(=O)CCCCCCC)OC(=O)[C@H](C(C)(C)C)NC1=O [Compound 1-6] | 60.26 | 59.19 | 66.37 | 60.94 | 66.64 |

| Compound | IC50 (HDAC1) [µM] | GI50 [1] [µM] | GI50 [2] [µM] | GI50 [3] [µM] | GI50 [4] [µM] | GI50 [5] [µM] | GI50 [6] [µM] | GI50 [7] [µM] | GI50 (PANC-1) [µM] | GI50 [8] [µM] | Tumor Inhibition Rate (1 − T/C) × 100% [9] [%] | Tumor Inhibition Rate (1 − T/C) × 100% [10] [%] | Tumor Inhibition Rate (1 − T/C) × 100% [11] [%] | Tumor Inhibition Rate (1 − T/C) × 100% [12] [%] | Tumor Inhibition Rate (1 − T/C) × 100% (Human Melanoma Cell A875) [%] |
| --- | --- | --- | --- | --- | --- | --- | --- | --- | --- | --- | --- | --- | --- | --- | --- |
| C/C=C1\NC(=O)c2csc(n2)CNC(=O)C[C@@H](/C=C/CCSC(=O)CCCCCCC)OC(=O)[C@H](C(C)C)NC1=O [Compound 1-3] | < 10 | 0.06 | 0.3 | 1 | 1.2 | 0.5 | 10 | 1 | 6 | 4 | 59.38 | 56.40 | 65.21 | 70.08 | 63.89 |
| O=C(CCCCCCC(=O)Nc1ccccc1)NO [SAHA, suberoylanilide hydroxamic acid, reference compound] | – | 4.5 | – | 37.8 | 1.8 | 2.31 | 7.7 | – | 7.46 | 3.8 | – | – | – | – | – |
